Experimental data: patent US11369665B2, “Anti-inflammatory peptides and composition comprising the same” (GemVax & KAEL Co., Ltd., priority 2012, dated 2022)

Assays:
Pyk2 = test: 2D-electrophoresis protein expression in neural stem cells; type: cell-based, rat; conditions: 20 ug β-amyloid + PEP 1 treated group, versus negative control 1.0
Description: Protein expression level of PEP-1 treated group and untreated group was analyzed by 2D-electrophoresis technique and antibody microarray technique. Prepared 200 μg by extracting proteome from the neural stem cells cultured in Experiment 3-1 of Example 3. In addition, the group in which PEP-1 was not treated was used as the comparison group in the same condition.
2D-electrophoresis was performed using 12% acrylamide gels. First gel electrophoresis was performed at PI 4˜10 N, using a gel size of 8.5×7 cm. After electrophoresis, it was dyed with Colloidal Coomassie Blue, and then compared expression by using PDQuest software to analyze each spot.
Difference in the expression levels of more than 1.5 times was identified using MALDI-TOF MS (Matrix Desorption/Ionization Time of Flight Mass Spectromestry). Among these, proteins correlated with inflammation-related signaling, such as i-NOS and HMGB-1 were identified (Refer to Table 6). The changes in protein expression levels either increased or decreased by 1.5 times by amyloid-β protein, but it was confirmed that expression level was regulated close to that of negative control when PEP-1 was added (Refer to FIGS. 14A-14B).
The Table 6 below is an analysis of expression levels of proteins associated with inflammation by 2D electrophoresis technique. The control group represents protein expression level of cells that were not treated with neither amyloid-β protein nor PEP-1.

HMGB1 = test: Western blot of HMGB1 in amyloid-β damaged neural stem cells; type: cell-based, rat; conditions: after the decrease by amyloid-β treatment, FIG. 15J
From the text: HMGB1, a non-histone structure protein that binds to DNA, serves diverse roles within a cell; such as stabilizing nucleosome structure and regulating gene expression.

reactive oxygen species = test: Reactive oxygen species by DCF-DA staining in neural stem cells; type: cell-based, rat; conditions: 20 μM amyloid-β protein, PEP-1 1 μM, 10 μM, 50 μM
Description: The mechanism of action of PEP-1's protective effect on apoptosis by amyloid-β protein was investigated. First, it was investigated whether PEP-1 is capable of minimizing the oxidative damage caused by amyloid-β protein. Change in generation of reactive oxygen species after treatment with amyloid-β protein and PEP-1 was observed by using DCF-DA staining (Molecular Probes, Eugene, Oreg.). In the group in which reactive oxygen species increased due to 20 μM of amyloid-β protein, the increased reactive oxygen species decreased by PEP-1 treatment (1 μM, 10 μM, 50 μM) (Refer to FIG. 13).

G-CSF = test: qPCR array in THP-1 cells; type: cell-based, human; conditions: LPS 10 ng/mL, 4 μM PEP-1, 4 h
Description: (§1) THP-1 cells (human monocytic leukemia derived cell line) were purchased from ATCC ([…] TYPE CULTURE COLLECTION®, Manassas, Va., USA) and cultured in RPMI-1640 (LIFE TECHNOLOGIES®, Carlsbad, Calif., USA) medium supplemented with 10% FBS (LIFE TECHNOLOGIES®), 1% penicillin/streptomycin (LIFE TECHNOLOGIES®), and 0.05 mM 2-mercaptoethanol (SIGMA-ALDRICH®, St. Louis, Mo., USA) at 37° C. in 5% CO2. THP-1 cells that normally grow in suspension were differentiated into an adherent macrophage-like phenotype in differentiation medium (complete growth medium containing 100 ng/mL phorbol 12-myristate 13-acetate (PMA, SIGMA-ALDRICH®)) for 24 hr. For differentiation, THP-1 cells (3×10^6 cells/plate, ˜95% confluency) were seeded into 10-cm tissue culture plates and incubated in differentiation medium.
(§2) Following differentiation, the macrophage-like THP-1 cells were washed twice using complete growth medium. Then, cells were treated with 10 ng/mL lipopolysaccharide (SIGMA-ALDRICH®) and/or 4 μM PEP-1 for 4 h at 37° C.
(§3) Total RNA was extracted and purified using RNeasy mini kit from QIAGEN® (Valencia, Calif., USA) following manufacturer's protocol. cDNAs were synthesized by reverse transcription using Reverse Transcription System from PROMEGA CORPORATION® (Madison, Wis., USA) according to the manufacturer's protocol.
(§4) Then, cDNA samples from THP-1 cells were used as template for real-time quantitative PCR (qPCR) analysis. For qPCR analysis, RT2 Profiler PCR Array kits were purchased from SABIOSCIENCES®/QIAGEN® (Valencia, Calif. USA). Four different PCR array kits analyzing separate signaling pathways used in the experiment are as follows: human signal transduction pathway finder, human inflammatory cytokines & receptors, human transcription factors, human NF-κB signaling pathway. PCR was performed with SYBR® Green qPCR detection system (QIAGEN®) using a BIO-RAD® (Hercules, Calif., USA) CFX 96 real-time PCR instrument. Thermocycling conditions were: 95° C. for 10 sec; 55° C. for 30 sec; 95° C. for 10 min; 95° C. for 10 sec, 55° C. for 30 sec, and 72° C. for 30 sec for 50 amplification cycles. Data represents the average value from three independent experiments, and % decrease was determined by the target gene expression in LPS treated samples vs. LPS+PEP-1 treated samples. Among 336 genes analyzed, only those showing statistically significant (p<0.05, student's t-test) % decrease were shown in table 7.

TNFα = test: qPCR array in THP-1 cells; type: cell-based, human; conditions: LPS 10 ng/mL, 4 μM PEP-1, 4 h
Description: as §1, §2, §3, §4

TNFR11B = test: qPCR array in THP-1 cells; type: cell-based, human; conditions: LPS 10 ng/mL, 4 μM PEP-1, 4 h
Description: as §1, §2, §3, §4

IL10 = test: qPCR array in THP-1 cells; type: cell-based, human; conditions: LPS 10 ng/mL, 4 μM PEP-1, 4 h
Description: as §1, §2, §3, §4

CCL4/MIP1β = test: qPCR array in THP-1 cells; type: cell-based, human; conditions: LPS 10 ng/mL, 4 μM PEP-1, 4 h
Description: as §1, §2, §3, §4

[1] = test system: ACSL5 (acyl-coA synthase); test: qPCR array in THP-1 cells; type: cell-based, human; conditions: LPS 10 ng/mL, 4 μM PEP-1, 4 h
Description: as §1, §2, §3, §4

CD40Ligand = test: qPCR array in THP-1 cells; type: cell-based, human; conditions: LPS 10 ng/mL, 4 μM PEP-1, 4 h
Description: as §1, §2, §3, §4

IkBα = test: qPCR array in THP-1 cells; type: cell-based, human; conditions: LPS 10 ng/mL, 4 μM PEP-1, 4 h
Description: as §1, §2, §3, §4

BCL10 = test: qPCR array in THP-1 cells; type: cell-based, human; conditions: LPS 10 ng/mL, 4 μM PEP-1, 4 h
Description: as §1, §2, §3, §4

ILlRa = test: qPCR array in THP-1 cells; type: cell-based, human; conditions: LPS 10 ng/mL, 4 μM PEP-1, 4 h
Description: as §1, §2, §3, §4

IL17C = test: qPCR array in THP-1 cells; type: cell-based, human; conditions: LPS 10 ng/mL, 4 μM PEP-1, 4 h
Description: as §1, §2, §3, §4

GM-CSF = test: qPCR array in THP-1 cells; type: cell-based, human; conditions: LPS 10 ng/mL, 4 μM PEP-1, 4 h
Description: as §1, §2, §3, §4

CCL26/MIP4α = test: qPCR array in THP-1 cells; type: cell-based, human; conditions: LPS 10 ng/mL, 4 μM PEP-1, 4 h
Description: as §1, §2, §3, §4

neural stem cells = test: Co-treatment amyloid-β and PEP-1: cell mobility (migration); type: cell-based, rat; conditions: 20 μM amyloid-β protein
From the text: Cell mobility is a vital matter due to the nature of neural stem cell. […] (Refer to FIG. 11).

Sequence: EARPALLTSRLRFIPK [PEP-1]
- Pyk2 expression (fold) (Pyk2): 1.2 fold
- HMGB1 in the cytoplasm of the nerve cells (HMGB1): increase of HMGB1
- reactive oxygen species increased by amyloid-β (reactive oxygen species): decreased
- G-CSF % Decrease by PEP 1 (LPS + PEP-1/LPS), p < 0.05 (G-CSF): ↓↓↓48%
- TNFα % Decrease by PEP 1 (LPS + PEP-1/LPS), p < 0.05 (TNFα): ↓↓34%
- TNFR11B % Decrease by PEP 1 (LPS + PEP-1/LPS), p < 0.05 (TNFR11B): ↓↓↓38%
- IL10 % Decrease by PEP 1 (LPS + PEP-1/LPS), p < 0.05 (IL10): ↓↓32%
- CCL4/MIP1β % Decrease by PEP 1 (LPS + PEP-1/LPS), p < 0.05 (CCL4/MIP1β): ↓22%
- ACSL5 (acyl-coA synthase) % Decrease by PEP 1 (LPS + PEP-1/LPS), p < 0.05 [1]: ↓17%
- CD40Ligand % Decrease by PEP 1 (LPS + PEP-1/LPS), p < 0.05 (CD40Ligand): ↓18%
- IkBα % Decrease by PEP 1 (LPS + PEP-1/LPS), p < 0.05 (IkBα): ↓↓27%
- BCL10 % Decrease by PEP 1 (LPS + PEP-1/LPS), p < 0.05 (BCL10): ↓↓32%
- ILlRa % Decrease by PEP 1 (LPS + PEP-1/LPS), p < 0.05 (ILlRa): ↓20%
- IL17C % Decrease by PEP 1 (LPS + PEP-1/LPS), p < 0.05 (IL17C): ↓↓35%
- GM-CSF % Decrease by PEP 1 (LPS + PEP-1/LPS), p < 0.05 (GM-CSF): ↓↓29%
- CCL26/MIP4α % Decrease by PEP 1 (LPS + PEP-1/LPS), p < 0.05 (CCL26/MIP4α): ↓↓↓42%
- cell mobility decreased by amyloid-β (neural stem cells; FIG. 11): restored
- cell mobility compared to control (neural stem cells; PEP-1 10 μM): increased even more
